Patent US20100160397A1, “OXAZOLE DERIVATIVES AND THEIR USE IN THE TREATMENT OF DIABETES AND OBESITY” (priority 2006, published 2010)

Target: T1, human DGAT1 (Homo sapiens, UniProt O75907)
T1 construct: made in house; host or cells: sf9 insect cells (baculovirus), membrane fraction
T1 sequence (O75907 1-488): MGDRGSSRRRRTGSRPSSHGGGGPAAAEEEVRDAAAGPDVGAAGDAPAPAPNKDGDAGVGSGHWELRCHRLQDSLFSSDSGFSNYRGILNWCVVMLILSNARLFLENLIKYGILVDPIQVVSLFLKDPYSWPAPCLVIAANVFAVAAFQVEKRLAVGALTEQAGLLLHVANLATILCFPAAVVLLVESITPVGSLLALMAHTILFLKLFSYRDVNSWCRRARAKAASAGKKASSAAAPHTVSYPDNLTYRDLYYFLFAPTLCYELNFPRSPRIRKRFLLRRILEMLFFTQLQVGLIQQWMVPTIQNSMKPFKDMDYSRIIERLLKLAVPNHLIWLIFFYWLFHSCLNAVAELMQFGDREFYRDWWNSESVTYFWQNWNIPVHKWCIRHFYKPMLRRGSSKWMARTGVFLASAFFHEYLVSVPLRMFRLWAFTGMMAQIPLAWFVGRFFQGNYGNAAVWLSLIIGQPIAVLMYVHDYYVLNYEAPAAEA
Test: Human Enzyme Assay (DGAT1 inhibition, 14C oleoyl CoA incorporation into triolein)
Format: biochemical
Settings: human DGAT1 expressed in insect cell (sf9) membranes; 30 μM 14C oleoyl coenzyme A, 30 minutes at room temperature
Experimental: As indicated above, all of the compounds, and their corresponding pharmaceutically-acceptable salts, are useful in inhibiting DGAT1.
The in vitro assay to identify DGAT1 inhibitors uses human DGAT1 expressed in insect cell membranes as the enzyme source (Proc. Natl. Acad. Sci. 1998, 95, 13018-13023). Briefly, sf9 cells were infected with recombinant baculovirus containing human DGAT1 coding sequences and harvested after 48 h. Cells were lysed by sonication and membranes isolated by centrifuging at 28000 rpm for 1 h at 4° C. on a 41% sucrose gradient. The membrane fraction at the interphase was collected, washed, and stored in liquid nitrogen.
DGAT1 activity was assayed by a modification of the method described by Coleman (Methods in Enzymology 1992, 209, 98-102). Compound at 1-10 μM was incubated with 0.4 μg membrane protein, 5 mM MgCl2, and 10 0 μM 1,2 dioleoyl-sn-glycerol in a total assay volume of 200 μl in plastic tubes. The reaction was started by adding ^14C oleoyl coenzyme A (30 μM final concentration) and incubated at room temperature for 30 minutes. The reaction was stopped by adding 1.5 mL 2-propanol:heptane:water (80:20:2). Radioactive triolein product was separated into the organic phase by adding 1 mL heptane and 0.5 mL 0.1 M carbonate buffer pH 9.5. DGAT1 activity was quantified by counting aliquots of the upper heptane layer by liquid scintillography.

## COC(=O)C[C@H]1CC[C@H](c2ccc(NC(=O)c3coc(Nc4ccc(F)c(F)c4)n3)cc2)CC1 [Example 2, Methyl trans-2-{4-[4-({2-[(3,4-difluorophenyl)amino]-1,3-oxazole-4-carbonyl}amino)phenyl]cyclohexyl}acetate]
  IC50: 32 µM
